Reference: patent US20120245137A1 (Zalicus Pharmaceuticals Ltd., priority 2009, published 2012)
Like-named read-outs stand apart in the source and are kept apart here.

Legend:
Assay type in all cases: cell-based
Human Cav 2.2 channels = Human Cav 2.2 channels (Homo sapiens, UniProt Q00975); assay: Fluorescent assay for CaV2.2 channels using potassium depolarization (VIPR/FLIPR); details: FLIPR data; for CAv2.2 IC50 Ratio closed/inact.: ratio closed/inactivated IC50
In short: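 Fluo-4 calcium fluorescence (480/535 nm) was recorded on VIPR or FLIPR after depolarization to 70 mM final potassium. Before this, cells were preincubated 30 min at 25 °C with compound in 4–30 mM potassium, so that state-dependent block could be assessed; the cells were HEK293 coexpressing Cav2.2, α2δ, β and Kir2.3.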

CAv1.2 = CAv1.2 (Homo sapiens, UniProt Q13936); assay: FLIPR data, CAv1.2 channel blocking (Table 6); details: for CAv1.2 IC50 Ratio closed/inact.: ratio closed/inactivated IC50
T-type calcium channel [1] = target: T-type calcium channel (Homo sapiens, UniProt O43497); assay: T-type channel blocking, FLIPR data (Table 6); details: CAv3.1
Source text: (§1) Another method, high-throughput spectrophotometric assay, utilizes loading of the cell lines with a fluorescent dye sensitive to intracellular calcium concentration and subsequent examination of the effects of compounds on the ability of depolarization by potassium chloride or other means to alter intracellular calcium levels.

T-type calcium channel [2] = target: T-type calcium channel (Homo sapiens, UniProt O95180); assay: T-type channel blocking, FLIPR data (Table 6); details: for CAv3.2 IC50 Ratio closed/inact.: CAv3.2, ratio closed/inactivated IC50
Source text: as §1

[3] = closed state, read-out: CAv2.2 IC50 Closed
[4] = inactivated state, read-out: CAv2.2 IC50 Inact.
[5] = closed state, read-out: CAv1.2 IC50 Closed
[6] = inactivated state, read-out: CAv1.2 IC50 Inact.
[7] = CAv3.2, closed state, read-out: CAv3.2 IC50 Closed
[8] = CAv3.2, inactivated state, read-out: CAv3.2 IC50 Inact.

Chain of Human Cav 2.2 channels (Q00975 whole entry): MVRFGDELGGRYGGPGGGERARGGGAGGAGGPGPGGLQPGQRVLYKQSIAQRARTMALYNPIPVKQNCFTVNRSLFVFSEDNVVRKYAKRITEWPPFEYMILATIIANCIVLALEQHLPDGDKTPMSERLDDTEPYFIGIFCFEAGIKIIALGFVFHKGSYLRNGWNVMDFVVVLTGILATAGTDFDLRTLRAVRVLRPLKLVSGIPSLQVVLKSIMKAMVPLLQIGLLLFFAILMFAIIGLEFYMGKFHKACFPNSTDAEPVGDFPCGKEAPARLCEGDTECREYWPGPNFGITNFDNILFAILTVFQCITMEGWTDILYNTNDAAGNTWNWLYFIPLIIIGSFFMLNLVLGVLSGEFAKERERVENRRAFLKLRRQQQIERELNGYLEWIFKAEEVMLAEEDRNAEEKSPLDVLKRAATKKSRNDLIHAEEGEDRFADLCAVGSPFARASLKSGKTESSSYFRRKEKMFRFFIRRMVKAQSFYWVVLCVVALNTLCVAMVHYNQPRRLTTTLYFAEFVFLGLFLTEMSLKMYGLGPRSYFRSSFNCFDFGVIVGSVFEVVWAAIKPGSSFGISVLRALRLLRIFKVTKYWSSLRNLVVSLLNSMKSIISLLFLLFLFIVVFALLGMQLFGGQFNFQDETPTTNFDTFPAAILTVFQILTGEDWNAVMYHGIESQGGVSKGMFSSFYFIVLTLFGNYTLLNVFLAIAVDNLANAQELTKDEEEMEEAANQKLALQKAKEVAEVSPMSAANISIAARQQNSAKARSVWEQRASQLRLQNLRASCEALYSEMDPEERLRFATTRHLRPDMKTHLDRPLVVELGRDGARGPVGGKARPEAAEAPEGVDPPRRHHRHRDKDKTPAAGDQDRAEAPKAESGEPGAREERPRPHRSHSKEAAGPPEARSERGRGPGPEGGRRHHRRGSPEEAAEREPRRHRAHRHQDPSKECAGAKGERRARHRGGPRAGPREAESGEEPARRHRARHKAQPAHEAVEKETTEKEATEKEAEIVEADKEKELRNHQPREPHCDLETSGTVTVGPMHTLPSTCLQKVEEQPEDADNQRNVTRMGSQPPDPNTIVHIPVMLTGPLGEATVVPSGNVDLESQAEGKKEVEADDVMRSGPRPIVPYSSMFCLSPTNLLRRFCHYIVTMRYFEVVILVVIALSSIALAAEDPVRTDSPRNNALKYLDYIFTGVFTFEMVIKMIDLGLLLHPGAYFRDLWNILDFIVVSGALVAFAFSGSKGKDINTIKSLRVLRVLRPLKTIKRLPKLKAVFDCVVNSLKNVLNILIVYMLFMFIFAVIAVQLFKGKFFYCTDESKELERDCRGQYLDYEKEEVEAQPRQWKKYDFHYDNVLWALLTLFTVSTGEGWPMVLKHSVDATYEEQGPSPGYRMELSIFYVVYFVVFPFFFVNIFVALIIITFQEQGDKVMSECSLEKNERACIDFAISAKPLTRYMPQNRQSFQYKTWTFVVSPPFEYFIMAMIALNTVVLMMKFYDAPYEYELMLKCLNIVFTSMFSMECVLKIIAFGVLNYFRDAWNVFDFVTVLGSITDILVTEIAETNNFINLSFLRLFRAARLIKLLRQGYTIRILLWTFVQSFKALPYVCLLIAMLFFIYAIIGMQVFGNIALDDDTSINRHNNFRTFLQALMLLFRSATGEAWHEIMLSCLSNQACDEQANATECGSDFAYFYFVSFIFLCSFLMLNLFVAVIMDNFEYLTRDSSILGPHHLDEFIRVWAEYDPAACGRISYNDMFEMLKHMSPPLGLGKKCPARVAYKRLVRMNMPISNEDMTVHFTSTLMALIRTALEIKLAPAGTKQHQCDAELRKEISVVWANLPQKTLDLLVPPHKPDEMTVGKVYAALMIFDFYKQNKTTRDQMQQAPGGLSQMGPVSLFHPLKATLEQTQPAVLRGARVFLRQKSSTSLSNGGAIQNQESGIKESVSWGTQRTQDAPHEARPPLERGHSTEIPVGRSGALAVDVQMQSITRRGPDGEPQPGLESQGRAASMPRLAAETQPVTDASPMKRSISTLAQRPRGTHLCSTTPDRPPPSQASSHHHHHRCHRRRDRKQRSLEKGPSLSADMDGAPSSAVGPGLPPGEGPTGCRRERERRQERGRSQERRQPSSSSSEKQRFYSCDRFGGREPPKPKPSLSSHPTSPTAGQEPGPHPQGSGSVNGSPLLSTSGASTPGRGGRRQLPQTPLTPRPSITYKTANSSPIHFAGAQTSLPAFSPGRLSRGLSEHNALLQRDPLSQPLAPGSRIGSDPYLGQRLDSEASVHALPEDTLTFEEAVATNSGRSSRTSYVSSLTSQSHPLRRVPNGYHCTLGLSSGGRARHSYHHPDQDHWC
Chain of Human Cav 2.2 channels (P54289 25-1103 partner): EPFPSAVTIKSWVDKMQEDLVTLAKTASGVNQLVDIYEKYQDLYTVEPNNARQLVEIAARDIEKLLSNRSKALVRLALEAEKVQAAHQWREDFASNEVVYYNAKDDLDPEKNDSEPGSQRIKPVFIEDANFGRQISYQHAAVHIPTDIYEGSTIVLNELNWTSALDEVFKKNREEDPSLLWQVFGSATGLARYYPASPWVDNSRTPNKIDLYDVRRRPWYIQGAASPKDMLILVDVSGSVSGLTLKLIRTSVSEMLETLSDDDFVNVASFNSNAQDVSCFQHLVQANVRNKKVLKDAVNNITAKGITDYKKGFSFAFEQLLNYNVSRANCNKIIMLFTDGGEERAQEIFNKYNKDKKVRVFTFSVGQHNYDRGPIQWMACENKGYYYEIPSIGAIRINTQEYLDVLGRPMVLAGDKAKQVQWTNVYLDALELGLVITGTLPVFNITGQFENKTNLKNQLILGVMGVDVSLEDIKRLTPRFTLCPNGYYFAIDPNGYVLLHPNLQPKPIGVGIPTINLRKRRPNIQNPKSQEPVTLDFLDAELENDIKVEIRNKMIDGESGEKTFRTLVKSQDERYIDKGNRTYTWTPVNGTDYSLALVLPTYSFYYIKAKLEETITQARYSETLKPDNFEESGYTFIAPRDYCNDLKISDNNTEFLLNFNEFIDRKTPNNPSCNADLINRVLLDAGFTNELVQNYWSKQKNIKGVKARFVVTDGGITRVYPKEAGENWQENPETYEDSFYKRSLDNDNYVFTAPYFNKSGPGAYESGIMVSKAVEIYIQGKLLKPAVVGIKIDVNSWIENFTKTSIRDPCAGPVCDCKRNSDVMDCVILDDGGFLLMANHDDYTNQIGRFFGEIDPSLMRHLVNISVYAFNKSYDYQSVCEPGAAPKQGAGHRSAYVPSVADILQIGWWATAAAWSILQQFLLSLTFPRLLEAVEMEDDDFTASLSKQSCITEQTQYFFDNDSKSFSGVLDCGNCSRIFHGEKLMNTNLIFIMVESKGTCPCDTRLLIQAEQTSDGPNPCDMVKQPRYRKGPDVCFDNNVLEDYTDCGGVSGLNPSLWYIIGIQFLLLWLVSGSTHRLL
Chain of Human Cav 2.2 channels (P54284 whole entry partner): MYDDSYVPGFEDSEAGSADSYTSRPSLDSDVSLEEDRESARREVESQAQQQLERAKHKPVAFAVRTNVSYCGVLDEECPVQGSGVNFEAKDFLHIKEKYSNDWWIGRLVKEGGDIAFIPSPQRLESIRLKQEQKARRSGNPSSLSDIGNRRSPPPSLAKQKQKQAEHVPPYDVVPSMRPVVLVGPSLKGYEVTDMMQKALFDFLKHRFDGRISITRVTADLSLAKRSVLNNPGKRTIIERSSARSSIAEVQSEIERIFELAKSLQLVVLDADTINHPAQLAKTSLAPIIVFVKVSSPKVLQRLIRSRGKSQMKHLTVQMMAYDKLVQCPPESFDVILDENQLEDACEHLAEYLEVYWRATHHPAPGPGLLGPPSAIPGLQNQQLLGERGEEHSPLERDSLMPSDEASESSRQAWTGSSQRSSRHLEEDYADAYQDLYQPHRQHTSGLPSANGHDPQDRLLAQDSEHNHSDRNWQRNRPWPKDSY

Structure (SMILES)	IC50 (Human Cav 2.2 channels; [3])	IC50 (Human Cav 2.2 channels; [4])	CAv2.2 IC50 Ratio closed/inact. (Human Cav 2.2 channels)	IC50 (T-type calcium channel [1])	IC50 (T-type calcium channel [2]; [7])	IC50 (T-type calcium channel [2]; [8])	CAv3.2 IC50 Ratio closed/inact. (T-type calcium channel [2])	IC50 (CAv1.2; [5])	IC50 (CAv1.2; [6])	CAv1.2 IC50 Ratio closed/inact. (CAv1.2)
O=S(=O)(c1cc(F)cc(C(F)(F)F)c1)[C@H]1C[C@@H](CNc2ccnc(C(F)(F)F)n2)C1 [Compound 651]	10 µM	3.26 µM	3.1	9.04 µM	6.41 µM	3.59 µM	1.8	9.21 µM	3.86 µM	2.4
CC(C)([C@H]1C[C@@H](NS(=O)(=O)c2ccc(C(F)(F)F)cc2Cl)C1)S(=O)(=O)c1cc(F)cc(C(F)(F)F)c1 [Compound 622]	4.79 µM	0.68 µM	7	4.86 µM	≥ 10 µM	4.48 µM	2.2	9.01 µM	1.94 µM	4.6
CC(C)([C@H]1C[C@H](NS(=O)(=O)c2ccc(C(F)(F)F)cc2)C1)S(=O)(=O)c1cc(F)cc(C(F)(F)F)c1 [Compound 605]	5.4 µM	0.87 µM	6.2	4.35 µM	4.79 µM	2.21 µM	2.2	5.29 µM	1.92 µM	2.8
CC(C)(C1CC(CNC(=O)c2cc(C(F)(F)F)n[nH]2)C1)S(=O)(=O)c1cccc(C(F)(F)F)c1 (stereo not drawn) [Compound 682]	6.64 µM	0.53 µM	12.5	≥ 10 µM	2.31 µM			≥ 10 µM	2.16 µM	4.6
CC(C)([C@H]1C[C@H](NC(=O)c2cncc(C(F)(F)F)c2)C1)S(=O)(=O)c1cccc(C(F)(F)F)c1 [Compound 671]	5.47 µM	0.28 µM	19.5	9.28 µM	5.73 µM	6.36 µM	0.9	≥ 10 µM	7.82 µM	1.3
CC(C)([C@H]1C[C@H](NS(=O)(=O)c2ccc(C(F)(F)F)cc2Cl)C1)S(=O)(=O)c1cccc(C(F)(F)F)c1 [Compound 666]	10 µM	0.65 µM	15.4	1.59 µM	2.16 µM	2.17 µM	1	≥ 10 µM	2.29 µM	4.4
Cc1nc(S(=O)(=O)N[C@H]2C[C@H](C(C)(C)S(=O)(=O)c3cc(F)cc(C(F)(F)F)c3)C2)cn1C [Compound 611]	10 µM	9.14 µM	1.1	≥ 10 µM		10 µM		≥ 10 µM	≥ 10 µM	
CC(C)([C@H]1C[C@@H](NS(=O)(=O)c2ccc(OC(F)(F)F)cc2)C1)S(=O)(=O)c1cccc(C(F)(F)F)c1 [Compound 630]	10 µM	0.68 µM	14.7	2.33 µM	3.73 µM	2.16 µM	1.7	≥ 10 µM	3.11 µM	3.2

Stronger by IC50 (Human Cav 2.2 channels; [3]), values ahead:

IC50 (Human Cav 2.2 channels; [3])	IC50 (Human Cav 2.2 channels; [4])	CAv2.2 IC50 Ratio closed/inact. (Human Cav 2.2 channels)	IC50 (T-type calcium channel [1])	IC50 (T-type calcium channel [2]; [7])	IC50 (T-type calcium channel [2]; [8])	CAv3.2 IC50 Ratio closed/inact. (T-type calcium channel [2])	Structure (SMILES)	IC50 (CAv1.2; [5])	IC50 (CAv1.2; [6])	CAv1.2 IC50 Ratio closed/inact. (CAv1.2)
4.17 µM	0.86 µM	4.8	3.27 µM	2.99 µM	2.59 µM	1.2	CC(C)([C@H]1C[C@H](Nc2ccnc(C(F)(F)F)n2)C1)S(=O)(=O)c1cccc(OC(F)(F)F)c1 [Compound 647]	6.55 µM	1.08 µM	6.1
3.95 µM	0.85 µM	4.6	2.87 µM	4.02 µM	0.74 µM	5.4	O=C(NC[C@H]1C[C@H](S(=O)(=O)c2cc(F)cc(C(F)(F)F)c2)C1)c1ccc(OCC(F)(F)F)nc1 [Compound 706]	7.98 µM	3.09 µM	2.6
3.95 µM	0.89 µM	4.4	≥ 10 µM	7.5 µM	3.79 µM	2	O=C(NC[C@H]1C[C@H](S(=O)(=O)c2cc(F)cc(C(F)(F)F)c2)C1)c1ccc(Cl)cn1 [Compound 702]	9.86 µM	7.28 µM	1.4
2.51 µM	0.92 µM	2.7	4.17 µM	8.53 µM	3.57 µM	2.4	CC(C)([C@H]1C[C@H](NS(=O)(=O)c2ccc(F)c(Cl)c2)C1)S(=O)(=O)c1cc(F)cc(C(F)(F)F)c1 [Compound 606]	5.65 µM	2.76 µM	2
1.67 µM	0.25 µM	6.7	0.77 µM	0.29 µM	0.53 µM	0.5	CC(C)([C@H]1C[C@@H](NC(=O)c2ccc(F)c(Cl)c2)C1)S(=O)(=O)c1cccc(OC(F)(F)F)c1 [Compound 641]	4.11 µM	0.69 µM	6
1.37 µM	0.25 µM	5.5	≥ 10 µM	≥ 10 µM	7.17 µM	1.4	CC(C)(C1CC(CNC(=O)c2ccnc(C(F)(F)F)n2)C1)S(=O)(=O)c1cccc(C(F)(F)F)c1 (stereo not drawn) [Compound 615]	≥ 10 µM	5.61 µM	1.8
1.3 µM	0.12 µM	10.8	2.47 µM	1.99 µM	0.35 µM	5.7	CC(C)(C1CC(CNC(=O)c2ccc(F)c(Cl)c2)C1)S(=O)(=O)c1cccc(C(F)(F)F)c1 (stereo not drawn) [Compound 618]	4.08 µM	0.3 µM	13.6
1.24 µM	0.11 µM	11.3	1.78 µM	0.73 µM	0.64 µM	1.1	CC(C)(C[C@H]1C[C@H](NC(=O)c2ccc(C(F)(F)F)cc2)C1)S(=O)(=O)c1cccc(C(F)(F)F)c1 [Compound 719]	2.73 µM	0.75 µM	3.6
0.69 µM	0.07 µM	9.9	3.51 µM	4.55 µM	1.46 µM	3.1	CC(C)(C[C@H]1C[C@@H](NC(=O)c2ccc(C(F)(F)F)cn2)C1)S(=O)(=O)c1cccc(C(F)(F)F)c1 [Compound 735]	6.37 µM	3.71 µM	1.7
